Read-outs that look alike come from different tables or passages of the source.
Columns and labels:
[1] = test system: A/chicken/Egypt/B13825A/2017 (H5N1wild); assay: microbe, parasite or virus in culture; type: cell-based; details: Influenza A virus
H5N1V116A virus [2] = type: cell-based, influenza A virus; details: read-out: IC50 (50% Inhibitory Concentration) H5N1V116A
H5N1N295S virus [3] = type: cell-based, influenza A virus; details: read-out: IC50 (50% Inhibitory Concentration) H5N1N295S
[4] = test system: A/California/04/2009 (H1N1); assay: microbe, parasite or virus in culture; type: cell-based; details: Influenza A virus
in vitro = details: dog
H5N1wild virus [5] = type: cell-based
H5N1V116A virus [6] = type: cell-based, influenza A virus
H5N1N295S virus [7] = type: cell-based, influenza A virus
H1N1 virus [8] = type: cell-based
H5N1wild virus [9] = details: mouse, in vivo
H1N1 virus [10] = details: mouse, in vivo
[11] = mouse, in vivo
H5N1wild virus [12] = assay: microbe, parasite or virus in culture; type: cell-based; details: Influenza A virus, read-out: viral inhibition in the count of plaques, H5N1wild
H5N1V116A virus [13] = type: cell-based, influenza A virus; remark: listed apart in the source
H5N1N295S virus [14] = type: cell-based, influenza A virus; remark: listed apart in the source
[15] = read-out: IC50 (50% Inhibitory Concentration) H5N1wild
[16] = read-out: IC50 H5N1wild (Figure 5)
[17] = H1N1, read-out: IC50 (50% Inhibitory Concentration) H1N1
[18] = H1N1, read-out: IC50 H1N1 (Figure 5)

SMILES | IC50 [1, 15] | IC50 (H5N1V116A virus [2]) | IC50 (H5N1N295S virus [3]) | IC50 [4, 17] | IC50 [4, 18] | CC50 at 72 h (in vitro) | inhibition in the viral HA titer, H5N1wild (H5N1wild virus [5]) | inhibition in the viral HA titer, H5N1V116A (H5N1V116A virus [6]) | inhibition in the viral HA titer, H5N1N295S (H5N1N295S virus [7]) | inhibition in the viral HA titer, H1N1 (H1N1 virus [8]) | survival after infection with H5N1wild (H5N1wild virus [9]) | survival after infection with H1N1 (H1N1 virus [10]) | external observations of mice [11] | ALT ([11]; 20 mg/kg) | AST ([11]; 20 mg/kg) | Creatinine ([11]; 20 mg/kg) | Urea ([11]; 20 mg/kg) | ALT ([11]; 40 mg/kg) | AST ([11]; 40 mg/kg) | Creatinine ([11]; 40 mg/kg) | other results
CC(=O)OC[C@H]1O[C@@H](OCc2cn(Cc3nc4ccccc4[nH]3)nn2)[C@H](OC(C)=O)[C@@H](OC(C)=O)[C@@H]1OC(C)=O [Compound 7a, (2R,3R,4S,5R,6R)-2-((1-((1H-Benzo[d]imidazol-2-yl)methyl)-1H-1,2,3-triazol-4-yl)methoxy)-6-(acetoxymethyl)tetrahydro-2H-pyran-3,4,5-triyl Triacetate] | 325 µM | 48.3 µM | 283 µM | 84.9 µM | 84.9 µM | 685 µM | – | – | – | – | – | – | – | – | – | – | – | – | – | – | IC50 [1, 16]: 325 µM
CC(=O)OC[C@H]1O[C@@H](OCc2cn(Cc3nc4ccccc4o3)nn2)[C@H](OC(C)=O)[C@@H](OC(C)=O)[C@@H]1OC(C)=O [Compound 7b, (2R,3R,4S,5R,6R)-2-(Acetoxymethyl)-6-((1-(benzo[d]oxazol-2-ylmethyl)-1H-1,2,3-triazol-4-yl)methoxy)tetrahydro-2H-pyran-3,4,5-triyl Triacetate] | 37 µM | 22.6 µM | 15.5 µM | 1.68 µM | 1.68 µM | 1050 µM | – | – | – | – | – | – | – | – | – | – | – | – | – | – | –
CC(=O)OC[C@H]1O[C@@H](OCc2cn(Cc3nc4ccccc4s3)nn2)[C@H](OC(C)=O)[C@@H](OC(C)=O)[C@@H]1OC(C)=O [Compound 7c, (2R,3R,4S,5R,6R)-2-(Acetoxymethyl)-6-((1-(benzo[d]thiazol-2-ylmethyl)-1H-1,2,3-triazol-4-yl)methoxy)tetrahydro-2H-pyran-3,4,5-triyl Triacetate] | 1.62 µM | 11.3 µM | 37.4 µM | 1.65 µM | 1.66 µM | 764 µM | – | – | – | – | – | – | – | – | – | – | – | – | – | – | –
CC(=O)OC[C@H]1O[C@@H](OCc2cn(Cc3nc4ccccc4[nH]3)nn2)[C@H](OC(C)=O)[C@@H](OC(C)=O)[C@H]1OC(C)=O [Compound 8a, (2R,3R,4S,5S,6R)-2-((1-((1H-Benzo[d]imidazol-2-yl)methyl)-1H-1,2,3-triazol-4-yl)methoxy)-6-(acetoxymethyl)tetrahydro-2H-pyran-3,4,5-triyl Triacetate] | 26.3 µM | 924 µM | 22.8 µM | 1.61 µM | – | 503 µM | – | – | – | – | – | – | – | – | – | – | – | – | – | – | –
CC(=O)OC[C@H]1O[C@@H](OCc2cn(Cc3nc4ccccc4o3)nn2)[C@H](OC(C)=O)[C@@H](OC(C)=O)[C@H]1OC(C)=O [Compound 8b, (2R,3S,4S,5R,6R)-2-(Acetoxymethyl)-6-((1-(benzo[d]oxazol-2-ylmethyl)-1H-1,2,3-triazol-4-yl)methoxy)tetrahydro-2H-pyran-3,4,5-triyl Triacetate] | 8.63 µM | 16.2 µM | 19.6 µM | 1.7 µM | 1.7 µM | 788 µM | more than 80% | more than 80% | not more than 60% | more than 80% | 60% | 60% | normal in external observations | 10.66 ± 4.32 | 15 ± 3.41 | 0.17 ± 0.04 | 9.00 ± 3.81 | 8.20 ± 2.62 | 15.77 ± 0.9944 | 0.13 ± 0.04 | Urea ([11]; 40 mg/kg): 6.66 ± 1.54; ALT ([11]; 80 mg/kg): 6.72 ± 1.47; AST ([11]; 80 mg/kg): 16 ± 5.099; Creatinine ([11]; 80 mg/kg): 0.10 ± 0.02; Urea ([11]; 80 mg/kg): 7.32 ± 3.90
CC(=O)OC[C@H]1O[C@@H](OCc2cn(Cc3nc4ccccc4s3)nn2)[C@H](OC(C)=O)[C@@H](OC(C)=O)[C@H]1OC(C)=O [Compound 8c, (2R,3S,4S,5R,6R)-2-(Acetoxymethyl)-6-((1-(benzo[d]thiazol-2-ylmethyl)-1H-1,2,3-triazol-4-yl)methoxy)tetrahydro-2H-pyran-3,4,5-triyl Triacetate] | 1.65 µM | 68.6 µM | 64.7 µM | 1.64 µM | 1.64 µM | 312 µM | – | – | – | – | – | – | – | – | – | – | – | – | – | – | –
CC(=O)O[C@@H]1[C@@H](OC(C)=O)[C@H](OCc2cn(Cc3nc4ccccc4[nH]3)nn2)OC[C@H]1OC(C)=O [Compound 9a, (2R,3R,4S,5R,)-2-((1-((1H-Benzo[d]imidazol-2-yl)methyl)-1H-1,2,3-triazol-4-yl)methoxy)tetrahydro-2H-pyran-3,4,5-triyl Triacetate] | 5.8 µM | 5.62 µM | 5.62 µM | 1.65 µM | 1.65 µM | 795 µM | not more than 50% | more than 80% | not more than 50% | more than 80% | – | 60% | normal in external observations | 9.64 ± 3.64 | 20 ± 6.957 | 0.13 ± 0.04 | 7.32 ± 2.09 | 10.64 ± 1.38 | 13.77 ± 1.298 | 0.13 ± 0.04 | virus shedding in the nasal wash (EID50), H5N1wild (H5N1wild virus [9]): reduced the viral shedding; viral titer in lung tissue (TCID50), H1N1 (H1N1 virus [10]): significantly reduced the propagation; virus shedding in the nasal wash (EID50), H1N1 (H1N1 virus [10]): significantly reduced the viral titer; Urea ([11]; 40 mg/kg): 7.32 ± 0.48; ALT ([11]; 80 mg/kg): 8.67 ± 2.16; AST ([11]; 80 mg/kg): 15.33 ± 0.9686; Creatinine ([11]; 80 mg/kg): 0.17 ± 0.04; Urea ([11]; 80 mg/kg): 4.64 ± 1.12
CC(=O)O[C@@H]1[C@@H](OC(C)=O)[C@H](OCc2cn(Cc3nc4ccccc4o3)nn2)OC[C@H]1OC(C)=O [Compound 9b, (2R,3R,4S,5R)-2-((1-(Benzo[d]oxazol-2-ylmethyl)-1H-1,2,3-triazol-4-yl)methoxy)tetrahydro-2H-pyran-3,4,5-triyl Triacetate] | 1.67 µM | 56.7 µM | 12.3 µM | 1.68 µM | – | 478 µM | – | – | – | – | – | – | – | – | – | – | – | – | – | – | –
CC(=O)O[C@@H]1[C@@H](OC(C)=O)[C@H](OCc2cn(Cc3nc4ccccc4s3)nn2)OC[C@H]1OC(C)=O [Compound 9c, (2R,3R,4S,5R)-2-((1-(Benzo[d]thiazol-2-ylmethyl)-1H-1,2,3-triazol-4-yl)methoxy)tetrahydro-2H-pyran-3,4,5-triyl Triacetate] | 2.25 µM | 1.65 µM | 55.1 µM | 1.64 µM | 1.64 µM | 302 µM | more than 80% | more than 80% | not more than 50% | more than 80% | 80% | full protection from mortality | normal in external observations | 7.60 ± 1.56 | 11.93 ± 3.765 | 0.14 ± 0.05 | 7.90 ± 3.13 | 7.80 ± 2.07 | 9.689 ± 2.922 | 0.14 ± 0.05 | viral titer in lung tissue (TCID50), H5N1wild (H5N1wild virus [9]): reduced the propagation; virus shedding in the nasal wash (EID50), H5N1wild (H5N1wild virus [9]): reduced the viral shedding; viral titer in lung tissue (TCID50), H1N1 (H1N1 virus [10]): reduced the propagation; Urea ([11]; 40 mg/kg): 3.64 ± 1.49; ALT ([11]; 80 mg/kg): 5.54 ± 1.22; AST ([11]; 80 mg/kg): 12.33 ± 3.169; Creatinine ([11]; 80 mg/kg): 0.13 ± 0.04; Urea ([11]; 80 mg/kg): 4.88 ± 2.13
CCOC(=O)C1=C[C@H](N)C(NC(C)=O)[C@H](OC(CC)CC)C1 (stereo partly drawn) [oseltamivir, reference compound] | 10.1 µM | 309 µM | 25.8 µM | 1.65 µM | – | 581 µM | ≤ 20% | not more than 80% | ≤ 20% | not more than 80% | 60% | – | – | – | – | – | – | – | – | – | IC50 [1, 16]: 10.1 µM; inhibition at 5 µM (H5N1wild virus [12]): ~90%; viral inhibition in the count of plaques, H5N1V116A (H5N1V116A virus [13]): ~40%; viral inhibition in the count of plaques, H5N1N295S (H5N1N295S virus [14]): ~8.5%; viral titer in lung tissue (TCID50), H5N1wild (H5N1wild virus [9]): reduced the propagation; mortality after infection with H1N1 (H1N1 virus [10]): 60%; viral titer in lung tissue (TCID50), H1N1 (H1N1 virus [10]): did not affect

Reference: paper PMC8950700 (Pharmaceuticals, 2022)
